Patent US6001597A, “Compositions and methods for producing heterologous polypeptides in Pichia methanolica” (ZymoGenetics, Inc., priority 1998, dated 1999)

Test system: P. mathanolica cells (strain CBS6515, UV-mutagenized)
Assay: Nystatin enrichment for auxotrophic mutants: titering of colony forming units, nystatin-treated versus control cells
Assay type: cell-based, Pichia methanolica
Details: 1 mg nystatin added to remainder of 500 ml culture in minimal broth with 5 g/L ammonium sulfate, incubated one additional hour; versus control cells without nystatin
Protocol: The cells are then transferred to a culture medium deficient in assimilable nitrogen so that cellular nitrogen stores are depleted. By "deficient in assimilable nitrogen" it is meant that the medium lacks an amount of nitrogen sufficient to support growth of the cells. Depletion of cellular nitrogen stores will generally require about 12 to 24 hours of incubation, with 16 hours being sufficient under common conditions. Following depletion of nitrogen stores, the cells are cultured in a defined culture medium comprising an inorganic nitrogen source and an amount of an antifungal antibiotic sufficient to kill growing P. mathanolica cells. The antibiotic nystatin (mycostatin) is particularly preferred. Preferred inorganic nitrogen sources are those comprising ammonium ions, such as ammonium sulfate. In general, the medium will contain 10-200 mM ammonium, preferably about 60 mM ammonium. Nystatin is included at a concentration of 0.1 to 100 mg/l, preferably 0.5 to 20 mg/L, more preferably about 2 mg/L ([…]). […] Those skilled in the art will recognize that the actual antibiotic concentration and exposure time required to kill prototrophic cells can be readily determined empirically,and certain adjustments may be necessary to compensate for variations in specific activity between individual batches of antibiotic. […]

Structure (SMILES): C[C@@H]1[C@H](O)[C@@H](C)/C=C/C=C/CC/C=C/C=C/C=C/C=C/C(O[C@H]2O[C@H](C)[C@@H](O)[C@H](N)[C@@H]2O)CC2O[C@](O)(CC(O)C(O)CCC(O)CC(O)CC(O)CC(=O)O[C@H]1C)CC(O)C2C(=O)O (stereo partly shown) [nystatin]
- decrease in the number of viable cells (colony forming units), factor: 10^4
